Test results as given in patent publication US20250262230A1, “HMGB1 Inhibitors for Treatment of APOE4-related Tauopathies including Alzheimer’s Disease” (The J. David Gladstone Institutes, a testamentary trust …, priority 2022, published 2025).

Key:
[1] = test system: PS19-fE4/GFAP-Cre primary neurons; experiment: Recombinant protein treatment of primary neurons, APOE sandwich ELISA of cell lysates; assay type: cell-based, mouse; conditions: 10 μg/mL recombinant protein, 24 hours, day 14 in vitro
Method: (§1) Biochemically extracted mouse hippocampal tissue lysates were diluted in Milli-Q H2O to the appropriate concentration and were run according to the provided manufacturer protocols (human APOE (Abcam); mouse HMGB1 (Novus Biologicals). Reactions of samples were read on a SpectraMaX M5 spectrophotometer (Molecular Devices) and protein concentrations were determined after interpolating a standard curve and adjusting for dilutions.
(§2) Primary cultures of neurons were prepared from prenatal E20 pups of various genotypes. After collecting pup brains, the cortex plus hippocampus were isolated and placed in ice-cold dissociation media+kyneurenic acid media (DM/KY) (DM:Na2SO4 (81.8 mM); K2SO4 (30 mM); MgCl2 (5.8 mM), CaCl2) (0.25 mM); HEPES (1 mM); glucose (20 mM); phenol red (0.001%); NaOH (0.16 mM) in distilled H2O) (KY: kynurenic acid (10 mM); phenol red (0.0025%); HEPES (5 mM); MgCl2 (100 mM); NaOH (add dropwise until pH 7.4). The resulting DM/KY media was made by combining 90% DM with 10% KY media. The isolated tissue was finely minced and then submerged in pre-warmed Papain solution (1 mL per brain) for 13 minutes while gently inverting and then submerged in trypsin inhibitor solution for 5 minutes (5 mL for up to 10 brains) while gently inverting. The tissue pellet was washed with Optimem/Glucose solution (20 mM glucose, 1 mL per brain) while gently inverting. Then, fresh Optimem/Glucose solution was added and tissue was gently triturated until separated into single cells. After filtering the cells through a 40 um cell strainer, the dissociated cells were plated at 1×10^6 cells/well of a 12-well plate or 3×10^5 cells/well of a 24-well plate in Neurobasal medium supplemented with B27, 100 U/mL^−1 of penicillin G, 100 µg/mL^−1 of streptomycin, and 1% GlutaMAX (B27/Neurobasal). Every 3-4 days, half of the media was removed and replaced with fresh B27/Neurobasal media. In some experiments, primary neurons were treated with either a Dulbecco's PBS (dPBS) vehicle or a recombinant protein of interest (10 μg/mL for one well of a 12-well plate) for 24 hours at day 14 in vitro. […]
(§3) The inventors hypothesized that astrocytic APOE4 may regulate neuronal APOE4 expression by promoting the release of these factors that activate the neuronal ERK pathway, leading to increased neuronal APOE4 expression. […] The APOE protein levels were then quantitatively evaluated in the primary neuronal cell lysates by sandwich ELISA.
(§4) Experiments were also performed to determine whether HMGB1 is a potential modulatory factor of neuronal APOE4 expression. As such, primary neurons isolated from PS19-fE4/GFAP-Cre and PS19-fE4 mice were treated with 10 μg/mL of recombinant HMGB1 protein or a dPBS control and the APOE protein levels were quantitatively evaluated in cell lysates by sandwich ELISA.

PS19-fE4 primary neurons = experiment: as above; assay type: cell-based, mouse; conditions: 10 μg/mL recombinant protein, 24 hours, day 14 in vitro
Method: as §1, §2, §3, §4

DPP10: recombinant DPP10 protein used to treat primary neurons
increase in APOE protein levels relative to the dPBS control [1]: 98%
APOE protein levels in cell lysates vs dPBS control (PS19-fE4 primary neurons): no significant difference in APOE levels

B1: HMGB1: recombinant HMGB1 protein used to treat primary neurons (protein, listed as Homo sapiens)
chain: MGKGDPKKPRGKMSSYAFFVQTCREEHKKKHPDASVNFSEFSKKCSERWKTMSAKEKGKFEDMAKADKARYEREMKTYIPPKGETKKKFKDPNAPKRPPSAFFLFCSEYRPKIKGEHPGLSIGDVAKKLGEMWNNTAADDKQPYEKKAAKLKEKYEKDIAAYRAKGKPDAAKKGVVKAEKSKKKKEEEEDEEDEEDEEEEEDEEDEDEEEDDDDE
APOE protein levels in cell lysates vs dPBS control [1]: A significant difference was not observed
APOE protein levels in cell lysates vs dPBS control (PS19-fE4 primary neurons): A significant difference was not observed
